# Test results from publication PMC10604444, “Extra-Synaptic GABAA Receptor Potentiation and Neurosteroid-Induced Learning Deficits Are Inhibited by GR3027, a GABAA Modulating Steroid Antagonist” (Biomolecules, 2023).
# Experiments:
# [1] = system: dissociated hypothalamic cells (medial preoptic area); assay: Perforated patch recording of spontaneous miniature inhibitory postsynaptic currents (mIPSCs); type: cell-based, rat; details: 30 and 100 nM AP, holding potential −11 mV, n = 5, p < 0.05
# Description: For the patch clamp studies, male Sprague-Dawley rats (n = 5, weight < 130 g) were housed at two or four rats per cage at 22 °C and with artificial daylight. Rats had free access to water and standard food. The regional ethics committee for animal research approved the experimental protocols. All procedures including animals were conducted in accordance with the ethical guidelines set by the European Union Directive 2010/63/EU for animal experiments.
# Electrophysiological experiments: The methods used for electrophysiological recording and cell preparation have been described in detail elsewhere. A summary of the procedures is given below. […]
# Protocol and analysis: A standard protocol was used for the experiments. Firstly, the current was recorded in the control solution (EC solution) for 30–60 s, followed by a 60–300 s test period with or without AP. The spontaneous miniature inhibitory postsynaptic currents (mIPSCs) were detected by visual inspection of current changes. […] The time-course and amplitude of the currents were measured semi-manually by using cursors and were fitted to an exponential decay curve by the curve-fitting routine of the pCLAMP software (Axon Instruments, Foster City, CA, USA). […] All the mIPSC values from the treatment period of the recorded cell (n = 6–11 events) were pooled and the mean was subjected to statistical analysis. […]
# [2] = i.v. AP; cited from earlier work
# [3] = biological target: T1, human α5β3γ2L GABAA receptors expressed in HEK-293 cells (Homo sapiens, UniProt P28472+P31644); assay: Whole-cell patch clamp of GABA/THDOC-evoked currents, extra-synaptic protocol (Dynaflow); type: cell-based
# T1 construct: The coding regions of the human GABAA receptor subunits were then amplified by PCR; expressed in transfected cells; host or cells: HEK-293 (permanently transfected, pcDNA3.1 vectors, CMV promoter)
# Excerpt: Wild-type HEK-293 cells (passage 4, originating from Pasteur Institute, Paris, France) were permanently transfected with vectors including the human CMV promoter for the constitutive expression of the human α5, β3, and γ2L GABAA receptor subunits (α5β3γ2L) or the human α1, β2, and γ2L GABAA receptor subunits (α1β2γ2L). The production of the plasmids used in the sub-cloning of the different subunits is published in Rahman et al..
# The electrophysiological recordings from HEK-293 cells were performed with the whole-cell voltage clamp technique, at room temperature (21–23 °C). After compensation for liquid junction potential, a steady holding potential of −17 mV was used in all experiments. Patch pipettes were pulled from borosilicate glass (Bergman Labora AB, Danderyd, Sweden) and polished to a resistance of 2–5 MΩ when filled with intracellular solution and immersed in a bath (extracellular) solution (for solutions, see below). The pipette tips were filled by immersion in standard intracellular solution and subsequent back-filling with intracellular solution. The recordings were made using an Axopatch 200B amplifier and a Digidata 1322A (Axon Instruments, Foster City, CA, USA) controlled via a Pentium processor-based personal computer. Data were acquired using the pCLAMP software sampled at 10 kHz, filtered at 2–10 kHz, and analyzed with Clampfit (versions 9.0, both from Axon Instruments, Foster City, CA, USA). A series resistance between the pipette and cell membrane not higher than 20 MΩ was accepted. No series resistance compensation was used. The stability of series resistance was monitored repeatedly from the time course of capacitative transients during the experiments. The measured liquid junction potential between extracellular and intracellular solutions was subtracted from all data presented, as previously described. All experiments were performed at room temperature (21–23 °C).
# In all electrophysiological experiments, tetrahydro-deoxycorticosterone (THDOC) was used as a positive GABAA receptor steroid modulator (PAM) to mimic the effect of AP on central GABAA channels. […] THDOC (Sigma Chemical Co., St. Louis, MO, USA) and GR3027 (3α-ethynyl, 3β-hydroxyl, 5α-androstan-17-oxime, golexanolone, Umecrine Cognition AB, Stockholm, Sweden) were dissolved in dimethyl sulfoxide (DMSO) using ultrasound, for the preparation of solutions containing a final DMSO concentration of 0.1%. GR3027 was discovered within a series of molecules developed and patented by T. Bäckström and G. Ragagnin, (patent WO 2008/063128). All solutions were complemented with DMSO to achieve the same final concentration as in the steroid-containing test solution. GABA (Sigma Chemical Co., St. Louis, MO, USA) was first prepared as a stock solution (dissolved in EC with ultrasonic treatment) to the desired concentrations, with the corresponding final concentrations of test solutions (30 µM and 0.3 µM; see protocols below). GABA was added to the experimental solution without a change in osmolarity.
# The experimental protocols were designed to mimic the physiological conditions of the tonic (extra-synaptic) and phasic (synaptic) activation of GABAA receptors observed in central neurons, depending on the subunit compositions, respectively. GABA-evoked currents in HEK-293 cells expressing extra-synaptic (α5β3γ2L) or synaptic (α1β2γ2L) types of GABAA receptors were studied using the conventional whole-cell patch clamp technique. To mimic the physiological GABA exposure, the HEK-293 cells expressing α1β2γ2L GABAA receptors were exposed to short applications (40 ms) of 30 µM GABA, whereas HEK-293 cells expressing α5β3γ2L GABAA receptors were exposed to prolonged applications (6 s) of 0.3 µM GABA, either in the absence or presence of THDOC and/or GR3027.
# T1 sequence (P31644 32-462): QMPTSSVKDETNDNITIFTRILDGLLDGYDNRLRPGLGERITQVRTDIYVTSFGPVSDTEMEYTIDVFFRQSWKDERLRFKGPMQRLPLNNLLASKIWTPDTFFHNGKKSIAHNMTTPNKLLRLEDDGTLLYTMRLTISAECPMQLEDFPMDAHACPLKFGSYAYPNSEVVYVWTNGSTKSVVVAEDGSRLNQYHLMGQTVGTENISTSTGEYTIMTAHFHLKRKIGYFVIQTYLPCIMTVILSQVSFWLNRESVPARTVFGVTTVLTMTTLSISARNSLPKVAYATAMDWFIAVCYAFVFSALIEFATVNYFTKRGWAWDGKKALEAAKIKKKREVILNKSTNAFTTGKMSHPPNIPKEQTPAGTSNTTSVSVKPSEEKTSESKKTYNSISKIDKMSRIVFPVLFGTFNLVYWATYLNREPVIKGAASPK
# T1 sequence (P28472 26-473 isoform P28472-2 limits assumed): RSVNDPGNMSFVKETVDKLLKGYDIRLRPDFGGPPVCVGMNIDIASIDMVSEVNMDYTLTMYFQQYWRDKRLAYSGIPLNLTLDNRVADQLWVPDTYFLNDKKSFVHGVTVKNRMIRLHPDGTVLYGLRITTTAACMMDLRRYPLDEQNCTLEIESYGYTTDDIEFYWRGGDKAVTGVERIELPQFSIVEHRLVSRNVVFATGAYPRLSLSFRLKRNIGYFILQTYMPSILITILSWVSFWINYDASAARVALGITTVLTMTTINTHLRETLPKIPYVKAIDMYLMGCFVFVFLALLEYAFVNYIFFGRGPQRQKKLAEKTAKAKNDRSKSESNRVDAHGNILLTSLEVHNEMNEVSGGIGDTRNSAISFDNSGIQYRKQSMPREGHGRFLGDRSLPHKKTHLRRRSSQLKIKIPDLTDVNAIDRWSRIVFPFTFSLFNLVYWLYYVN
# T1 sequence (P18507 40-475 partner): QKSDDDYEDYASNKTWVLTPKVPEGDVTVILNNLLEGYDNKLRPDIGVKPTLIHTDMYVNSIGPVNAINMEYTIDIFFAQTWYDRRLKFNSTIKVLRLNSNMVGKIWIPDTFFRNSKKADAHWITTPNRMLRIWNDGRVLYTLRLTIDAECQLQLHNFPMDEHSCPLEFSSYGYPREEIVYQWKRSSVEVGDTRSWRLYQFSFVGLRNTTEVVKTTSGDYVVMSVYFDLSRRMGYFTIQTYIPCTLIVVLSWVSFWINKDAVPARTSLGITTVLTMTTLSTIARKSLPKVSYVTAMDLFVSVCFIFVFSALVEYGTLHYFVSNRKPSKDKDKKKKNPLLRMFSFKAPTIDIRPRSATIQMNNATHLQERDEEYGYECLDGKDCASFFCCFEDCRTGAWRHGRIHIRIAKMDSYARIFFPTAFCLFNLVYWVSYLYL
compound,measurement,setting,value
"CC(=O)[C@H]1CC[C@H]2[C@@H]3CC[C@H]4C[C@H](O)CC[C@]4(C)[C@H]3CC[C@]12C [AP, 3α-OH-5α-pregnan-20-one]",AUC of spontaneous miniature inhibitory postsynaptic currents vs vehicle,[1],significantly higher
same,Concentration in brain tissue after i.v. injections giving acute memory and learning disturbances,[2],1000 to 2000 nM
"C[C@]12CC[C@@H](O)C[C@@H]1CC[C@@H]1[C@@H]2CC[C@]2(C)[C@@H](C(=O)CO)CC[C@@H]12 [THDOC, 3α,21-dihydroxy-5α-pregnan-20-one, reference compound]",EC50,"[3]; EC50 of THDOC effect (outward shift in baseline holding current, direct activation), THDOC 30-300 nM, 0.3 µM GABA 6 s protocol, holding potential −17 mV",32 nM
same,"THDOC Emax, % change in peak amplitude at 0.3 µM GABA",[3]; THDOC 0.01-1 µM + 0.3 µM GABA + 1 µM GR3027,489%
same,"THDOC Emax, % change in peak amplitude at 0.3 µM GABA",[3]; THDOC 0.01-1 µM + 0.3 µM GABA + 3 µM GR3027,482%
same,"THDOC Emax, % change in peak amplitude at 0.3 µM GABA","[3]; THDOC 0.01-1 µM + 0.3 µM GABA, no GR3027",687%
same,"Emax of THDOC effect (outward shift in baseline holding current, direct activation)","[3]; THDOC 30-300 nM, 0.3 µM GABA 6 s protocol",145%
same,EC50,"[3]; THDOC EC50, enhancement of GABA-evoked peak amplitude, THDOC 0.01-1 µM + 0.3 µM GABA + 1 µM GR3027",220 nM
same,EC50,"[3]; THDOC EC50, enhancement of GABA-evoked peak amplitude, THDOC 0.01-1 µM + 0.3 µM GABA + 3 µM GR3027",350 nM
same,EC50,"[3]; THDOC EC50, enhancement of GABA-evoked peak amplitude, THDOC 0.01-1 µM + 0.3 µM GABA, no GR3027",190 nM
